How the values were obtained:
Format in all cases: in vivo
[1] = system: barnyardgrass (Echinochloa crus-galli); assay: Herbicidal effect on barnyardgrass (soil treatment); settings: Comparative Test 2, barnyardgrass, read-out: Growth inhibition rate
Source text: (§1) Upland soil was put into a 1/300,000 hectare (ha) pot, seeds of barnyardgrass (Echinochloa crus-galli) were sown, and about 1.5 cm of cover soil was put. […] On the next day after sowing, the spray solution was sprayed with a small sprayer for soil treatment.
(§2) Upland soil was put into a 1/300,000 hectare (ha) pot, seeds of barnyardgrass (Echinochloa crus-galli), crabgrass (Digitaria sanguinalis), green foxtail (Setaria viridis), Italian ryegrass (Lolium multiflorum), redroot pigweed (Amaranthus retroflexus) and common chickweed (Stellaria media) were sown, and about 1.5 cm of cover soil was put.

[2] = system: green foxtail (Setaria viridis); assay: Herbicidal effect on green foxtail (foliar treatment); settings: Comparative Test 1, green foxtail, read-out: Growth inhibition rate
Protocol: (§3) Upland soil was put into a 1/300,000 hectare (ha) pot, seeds of barnyardgrass (Echinochloa crus-galli) were sown, and about 1.5 cm of cover soil was put. The barnyardgrass was grown for 10 days in a greenhouse until it reached a predetermined leaf stage. […] The spray solution was sprayed over the grown barnyardgrass with a small sprayer for foliar treatment.
(§4) Upland soil was put into a 1/300,000 hectare (ha) pot, seeds of barnyardgrass (Echinochloa crus-galli), crabgrass (Digitaria sanguinalis), green foxtail (Setaria viridis), wild oat (Avena fatua), Italian ryegrass (Lolium multiflorum), foxtail shortawn (Alopecurus aequalis), annual bluegrass (Poa annua), redroot pigweed (Amaranthus retroflexus), common chickweed (Stellaria media) common lambsquarters (Chenopodium album) and black nightshade (Solanum nigrum) were sown, and about 1.5 cm of cover soil was put. The plants were grown for 10 days in a greenhouse until they reached a predetermined leaf stage.

[3] = system: common chickweed (Stellaria media); assay: Herbicidal effect on common chickweed (foliar treatment); settings: Comparative Test 1, common chickweed, read-out: Growth inhibition rate
Protocol: as §3, §4

[4] = system: green foxtail (Setaria viridis); assay: Herbicidal effect on green foxtail (soil treatment); settings: Comparative Test 2, green foxtail, read-out: Growth inhibition rate
Source text: as §1, §2

[5] = system: redroot pigweed (Amaranthus retroflexus); assay: Herbicidal effect on redroot pigweed (soil treatment)
Source text: as §1, §2

[6] = system: Italian ryegrass (Lolium multiflorum); assay: Herbicidal effect on Italian ryegrass (foliar treatment); settings: Comparative Test 1, Italian ryegrass, read-out: Growth inhibition rate
Protocol: as §3, §4

[7] = system: foxtail shortawn (Alopecurus aequalis); assay: Herbicidal effect on foxtail shortawn (foliar treatment); settings: Comparative Test 1, foxtail shortawn, read-out: Growth inhibition rate
Protocol: as §3, §4

[8] = system: common chickweed (Stellaria media); assay: Comparative Test 2: herbicidal effect on common chickweed (soil treatment); settings: Comparative Test 2, common chickweed, read-out: Growth inhibition rate
Source text: Upland soil was put into a 1/300,000 hectare (ha) pot, seeds of barnyardgrass (Echinochloa crus-galli), crabgrass (Digitaria sanguinalis), green foxtail (Setaria viridis), Italian ryegrass (Lolium multiflorum), redroot pigweed (Amaranthus retroflexus) and common chickweed (Stellaria media) were sown, and about 1.5 cm of cover soil was put. The Invention Compound (Aa-1-1, Aa-9-2) or the compound 4b described in Patent Document 1 was weighed to achieve a predetermined active ingredient dose, dissolved in acetone (containing 0.5 vol % of surfactant (TritonX-100: manufactured by Kishida Chemical Co., Ltd.)) or dimethyl sulfoxide and diluted with water (containing 0.1 vol % of agricultural spreader (Surfactant WK: manufactured by MARUWA Biochemical Co., Ltd.) in an amount corresponding to 1,000 liter per hectare, to prepare each spray solution. On the next day after sowing, each spray solution was sprayed with a small sprayer for soil treatment. On the 14th day after the soil treatment, the state of growth of each plant was visually observed, and the herbicidal effect was evaluated in accordance with the growth inhibition rate (%) of from 0 (equivalent to the non-treated area) to 100 (complete kill).

[9] = system: Italian ryegrass (Lolium multiflorum); assay: Herbicidal effect on Italian ryegrass (soil treatment)
Source text: as §1, §2

[10] = system: redroot pigweed (Amaranthus retroflexus); assay: Herbicidal effect on redroot pigweed (foliar treatment); settings: Comparative Test 1, redroot pigweed, read-out: Growth inhibition rate
Protocol: as §3, §4

[11] = system: annual bluegrass (Poa annua); assay: Herbicidal effect on annual bluegrass (foliar treatment); settings: Comparative Test 1, annual bluegrass, read-out: Growth inhibition rate
Protocol: as §3, §4

[12] = system: barnyardgrass (Echinochloa crus-galli); assay: Herbicidal effect on barnyardgrass (foliar treatment); settings: Comparative Test 1, barnyardgrass, read-out: Growth inhibition rate
Protocol: as §3, §4

wild oat (Avena fatua) = assay: Herbicidal effect on wild oat (foliar treatment); settings: Comparative Test 1, wild oat, read-out: Growth inhibition rate
Protocol: as §3, §4

[13] = system: crabgrass (Digitaria sanguinalis); assay: Herbicidal effect on crabgrass (foliar treatment); settings: Comparative Test 1, crabgrass, read-out: Growth inhibition rate
Protocol: as §3, §4

[14] = system: crabgrass (Digitaria sanguinalis); assay: Herbicidal effect on crabgrass (soil treatment)
Source text: as §1, §2

[15] = system: black nightshade (Solanum nigrum); assay: Herbicidal effect on black nightshade (foliar treatment); settings: Comparative Test 1, black nightshade, read-out: Growth inhibition rate
Protocol: as §3, §4

[16] = system: common lambsquarters (Chenopodium album); assay: Herbicidal effect on common lambsquarters (foliar treatment); settings: Comparative Test 1, common lambsquarters, read-out: Growth inhibition rate
Protocol: as §3, §4

COC(=O)[C@H]1C[C@H](NC(=O)C(F)(F)/C=C/c2cc(C)cc(F)c2)C1 [Aa-9-2]
inhibition at 500 g/ha ([1]; 500 g/ha): ≥ 90% | inhibition at 1000 g/ha ([1]; 1000 g/ha): ≥ 90% | inhibition at 500 g/ha ([2]; 500 g/ha): ≥ 90% | inhibition at 1000 g/ha ([2]; 1000 g/ha): ≥ 90% | inhibition at 500 g/ha ([3]; 500 g/ha): ≥ 90% | inhibition at 1000 g/ha ([3]; 1000 g/ha): ≥ 90% | inhibition at 500 g/ha ([4]; 500 g/ha): ≥ 90% | inhibition at 1000 g/ha ([4]; 1000 g/ha): ≥ 90% | inhibition at 500 g/ha ([5]; Comparative Test 2, redroot pigweed, read-out: Growth inhibition rate): ≥ 90% | inhibition at 1000 g/ha ([5]; Comparative Test 2, redroot pigweed, 1000 g/ha, read-out: Growth inhibition rate): ≥ 90% | inhibition at 500 g/ha ([5]; redroot pigweed, 14th day, read-out: growth inhibition rate): ≥ 70% | inhibition at 500 g/ha ([6]; 500 g/ha): ≥ 90% | inhibition at 1000 g/ha ([6]; 1000 g/ha): ≥ 90% | inhibition at 500 g/ha ([7]; 500 g/ha): ≥ 90% | inhibition at 1000 g/ha ([7]; 1000 g/ha): ≥ 90% | inhibition at 500 g/ha ([8]; 500 g/ha): ≥ 90% | inhibition at 1000 g/ha ([8]; 1000 g/ha): ≥ 90% | inhibition at 500 g/ha ([9]; Comparative Test 2, Italian ryegrass, read-out: Growth inhibition rate): ≥ 90% | inhibition at 1000 g/ha ([9]; Comparative Test 2, Italian ryegrass, 1000 g/ha, read-out: Growth inhibition rate): ≥ 90% | inhibition at 500 g/ha ([9]; Italian ryegrass, 14th day, read-out: growth inhibition rate): ≥ 70% | inhibition at 500 g/ha ([10]; 500 g/ha): 70 to 90% | inhibition at 1000 g/ha ([10]; 1000 g/ha): 70 to 90% | inhibition at 500 g/ha ([11]; 500 g/ha): ≥ 90% | inhibition at 1000 g/ha ([11]; 1000 g/ha): ≥ 90% | inhibition at 500 g/ha ([12]; 500 g/ha): ≥ 90% | inhibition at 1000 g/ha ([12]; 1000 g/ha): ≥ 90% | inhibition at 500 g/ha (wild oat (Avena fatua); 500 g/ha): ≥ 90% | inhibition at 1000 g/ha (wild oat (Avena fatua); 1000 g/ha): ≥ 90% | inhibition at 500 g/ha ([13]; 500 g/ha): ≥ 90% | inhibition at 1000 g/ha ([13]; 1000 g/ha): ≥ 90% | inhibition at 500 g/ha ([14]; Comparative Test 2, crabgrass, read-out: Growth inhibition rate): ≥ 90% | inhibition at 1000 g/ha ([14]; Comparative Test 2, crabgrass, 1000 g/ha, read-out: Growth inhibition rate): ≥ 90% | inhibition at 500 g/ha ([14]; crabgrass, 14th day, read-out: growth inhibition rate): ≥ 70% | inhibition at 500 g/ha ([15]; 500 g/ha): 50 to 70% | inhibition at 1000 g/ha ([15]; 1000 g/ha): 70 to 90% | inhibition at 500 g/ha ([16]; 500 g/ha): 70 to 90% | inhibition at 1000 g/ha ([16]; 1000 g/ha): 70 to 90%
